The values below are quoted from earlier work in patent publication EP3796908B1, “CONTROLLED RELEASE PROPIVERINE FORMULATIONS” (Santa Farma Ilaç Sanayi A.S., priority 2018, dated 2020).

The conditions of data set [1]: for maximal plasma concentrations reached after / mean absolute bioavailability: oral administration.
For data set [2] the following is noted: BCS classification.
[3] abbreviates: administration of the ER capsule.

The structures appear in SMILES notation. Read-outs that look alike come from different tables or passages of the source.

Consider `CCCOC(C(=O)OC1CCN(C)CC1)(c1ccccc1)c1ccccc1` [propiverine, 1-methyl-4-piperidyl diphenylpropoxy acetate], for which, in data set [1] (setting [3]), the “mean Cmax” value is reported as “about 70 ng/ml” and the “time in which Cmax is reached after administration” value is at most 9.5 h. Besides, in data set [1] (immediate release), the “maximal plasma concentrations reached after” value is 2.3 h and the mean absolute bioavailability is given as 40.5%. Moreover, in data set [1] (modified release), the “maximal plasma concentrations reached after” value is 9.9 h and the mean absolute bioavailability is reported as 60.8 ± 17.3%. In addition, in data set [2], the solubility entry is listed as “high solubility”.
